# Measured values: patent publication US20170043031A1, “IGF-1R ANTIBODY-DRUG-CONJUGATE AND ITS USE FOR THE TREATMENT OF CANCER” (PIERRE FABRE MEDICAMENT, priority 2014, published 2017)
# Test system: lysosome functions
# Assay: Inhibition of Abs degradation using lysosome inhibitor
# Assay type: cell-based
# Conditions: 10 μg/ml of Ab, 2 h at 37° C.
# Description: In order to confirm that antibodies reached the lysosome were they are degraded, cells were treated or not with bafilomycine A1, a potent inhibitor of lysosome functions. Cells were then incubated with 10 μg/ml of Ab to be tested at 4° C., washed and incubated for 2 h at 37° C. The internalized Ab was detected after cell permeabilisation using a secondary anti-mouse IgG-Alexa 488 Ab.
compound,measurement,value
CO/C1=C\C(C)=C\[C@@H](C)[C@@H](O)[C@@H](C)C/C(C)=C/C=C/[C@H](OC)[C@@H]([C@@H](C)[C@@H](O)[C@H](C)[C@@]2(O)C[C@@H](O)[C@H](C)[C@@H](C(C)C)O2)OC1=O [bafilomycine A1],degradation of intracellular Ab,prevented the degradation of intracellular Ab
